Experimental data reported in ChEMBL document CHEMBL5291721, “A preclinical secondary pharmacology resource illuminates target-adverse drug reaction associations of marketed drugs” (Nat Commun, 2023).

How the values were obtained:
[1] = target: T1, Prostaglandin G/H synthase 1 (Homo sapiens, UniProt P23219); type: functional
[2] = target: T2, Alpha-1A adrenergic receptor (Homo sapiens, UniProt P35348); type: functional, cell-based
T2 sequence (P35348 whole entry): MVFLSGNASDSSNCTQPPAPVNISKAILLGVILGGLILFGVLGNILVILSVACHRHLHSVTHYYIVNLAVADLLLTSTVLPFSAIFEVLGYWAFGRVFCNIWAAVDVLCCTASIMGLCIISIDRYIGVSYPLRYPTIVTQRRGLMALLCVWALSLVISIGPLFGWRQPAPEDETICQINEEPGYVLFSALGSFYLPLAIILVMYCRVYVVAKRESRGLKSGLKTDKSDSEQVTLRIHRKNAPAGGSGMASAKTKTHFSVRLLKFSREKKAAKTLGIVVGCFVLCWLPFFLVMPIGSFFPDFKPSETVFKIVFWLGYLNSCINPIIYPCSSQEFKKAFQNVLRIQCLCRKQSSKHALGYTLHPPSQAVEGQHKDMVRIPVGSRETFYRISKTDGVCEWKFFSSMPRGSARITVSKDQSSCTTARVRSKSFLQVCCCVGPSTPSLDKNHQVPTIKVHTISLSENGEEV

D(1A) dopamine receptor = D(1A) dopamine receptor (Homo sapiens, UniProt P21728)
Chain of D(1A) dopamine receptor (P21728 whole entry): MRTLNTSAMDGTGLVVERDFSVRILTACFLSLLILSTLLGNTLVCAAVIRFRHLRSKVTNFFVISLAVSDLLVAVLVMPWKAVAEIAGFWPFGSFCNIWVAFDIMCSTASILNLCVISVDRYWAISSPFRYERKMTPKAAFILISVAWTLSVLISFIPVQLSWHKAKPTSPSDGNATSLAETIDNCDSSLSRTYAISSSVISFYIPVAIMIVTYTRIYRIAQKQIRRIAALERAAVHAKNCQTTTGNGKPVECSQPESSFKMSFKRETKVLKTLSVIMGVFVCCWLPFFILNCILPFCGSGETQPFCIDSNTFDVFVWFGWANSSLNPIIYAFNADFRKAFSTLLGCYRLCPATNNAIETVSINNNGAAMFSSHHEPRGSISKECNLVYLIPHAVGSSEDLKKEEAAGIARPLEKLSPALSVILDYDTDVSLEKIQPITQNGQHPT

D(3) dopamine receptor = D(3) dopamine receptor (Homo sapiens, UniProt P35462)
[3] = target: T1, Prostaglandin G/H synthase 1; type: functional; remark: listed apart in the source
[4] = target: T3, Alpha-2A adrenergic receptor (Homo sapiens, UniProt P08913)
T3 sequence (P08913 whole entry): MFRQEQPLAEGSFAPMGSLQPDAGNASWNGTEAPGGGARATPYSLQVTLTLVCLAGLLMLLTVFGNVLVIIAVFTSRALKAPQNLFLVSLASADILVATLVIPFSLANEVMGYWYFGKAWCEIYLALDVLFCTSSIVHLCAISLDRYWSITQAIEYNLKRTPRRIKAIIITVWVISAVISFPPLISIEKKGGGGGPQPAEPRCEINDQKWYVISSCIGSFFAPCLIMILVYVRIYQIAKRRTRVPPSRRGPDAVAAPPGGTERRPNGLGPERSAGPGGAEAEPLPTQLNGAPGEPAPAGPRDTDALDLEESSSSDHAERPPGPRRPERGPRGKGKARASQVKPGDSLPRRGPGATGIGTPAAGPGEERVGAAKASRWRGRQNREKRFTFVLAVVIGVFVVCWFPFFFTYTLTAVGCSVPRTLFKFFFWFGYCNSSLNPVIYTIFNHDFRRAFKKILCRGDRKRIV

Thromboxane A2 receptor [5] = target: T4, Thromboxane A2 receptor (Homo sapiens, UniProt P21731); type: functional, cell-based
T4 sequence (P21731 whole entry): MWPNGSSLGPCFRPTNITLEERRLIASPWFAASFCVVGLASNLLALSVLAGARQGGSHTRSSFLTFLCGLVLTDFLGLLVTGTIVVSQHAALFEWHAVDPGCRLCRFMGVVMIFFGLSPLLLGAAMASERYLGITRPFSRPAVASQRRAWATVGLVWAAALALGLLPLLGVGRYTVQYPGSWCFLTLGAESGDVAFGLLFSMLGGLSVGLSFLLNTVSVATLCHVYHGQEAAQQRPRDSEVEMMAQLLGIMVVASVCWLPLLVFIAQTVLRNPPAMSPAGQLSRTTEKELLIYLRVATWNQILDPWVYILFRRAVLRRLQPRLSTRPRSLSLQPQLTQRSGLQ

[6] = target: Sodium-dependent noradrenaline transporter (Homo sapiens, UniProt P23975)
Chain of Sodium-dependent noradrenaline transporter (P23975 whole entry): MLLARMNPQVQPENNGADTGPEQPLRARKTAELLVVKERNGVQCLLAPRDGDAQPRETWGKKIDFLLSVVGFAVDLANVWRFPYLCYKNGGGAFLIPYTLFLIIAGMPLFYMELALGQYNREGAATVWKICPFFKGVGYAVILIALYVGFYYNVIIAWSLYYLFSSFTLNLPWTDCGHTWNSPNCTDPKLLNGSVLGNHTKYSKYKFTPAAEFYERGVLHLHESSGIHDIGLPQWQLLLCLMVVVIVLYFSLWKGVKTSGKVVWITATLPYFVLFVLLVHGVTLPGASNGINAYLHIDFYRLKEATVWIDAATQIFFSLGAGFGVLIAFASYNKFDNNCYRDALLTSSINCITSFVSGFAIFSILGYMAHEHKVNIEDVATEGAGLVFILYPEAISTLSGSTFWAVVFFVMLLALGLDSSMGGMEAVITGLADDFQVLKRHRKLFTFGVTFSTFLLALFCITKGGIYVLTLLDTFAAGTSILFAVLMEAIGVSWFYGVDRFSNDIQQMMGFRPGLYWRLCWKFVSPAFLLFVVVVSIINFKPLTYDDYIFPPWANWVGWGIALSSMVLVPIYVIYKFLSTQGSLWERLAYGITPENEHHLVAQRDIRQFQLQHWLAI

[7] = target: Sodium-dependent serotonin transporter (Homo sapiens, UniProt P31645)
Chain of Sodium-dependent serotonin transporter (P31645 whole entry): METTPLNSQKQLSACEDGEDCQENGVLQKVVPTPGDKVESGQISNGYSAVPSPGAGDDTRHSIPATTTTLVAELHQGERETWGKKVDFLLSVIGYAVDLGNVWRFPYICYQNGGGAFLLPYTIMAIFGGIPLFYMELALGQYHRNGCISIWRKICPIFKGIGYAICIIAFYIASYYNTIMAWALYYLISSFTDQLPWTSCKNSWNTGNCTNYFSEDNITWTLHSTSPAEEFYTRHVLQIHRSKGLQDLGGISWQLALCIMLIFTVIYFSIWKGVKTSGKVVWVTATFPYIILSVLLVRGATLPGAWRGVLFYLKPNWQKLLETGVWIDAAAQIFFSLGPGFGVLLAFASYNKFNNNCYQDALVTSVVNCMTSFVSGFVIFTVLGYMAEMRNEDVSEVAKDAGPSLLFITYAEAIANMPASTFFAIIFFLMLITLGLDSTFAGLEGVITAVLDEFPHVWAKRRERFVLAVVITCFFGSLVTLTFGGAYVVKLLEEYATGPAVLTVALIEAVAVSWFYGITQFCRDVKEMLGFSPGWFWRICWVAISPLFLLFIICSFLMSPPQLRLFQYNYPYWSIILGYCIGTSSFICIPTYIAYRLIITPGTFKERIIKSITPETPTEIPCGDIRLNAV

Thromboxane A2 receptor [8] = target: T4, Thromboxane A2 receptor; type: functional, cell-based; remark: listed apart in the source
Acetylcholinesterase = Acetylcholinesterase (Homo sapiens, UniProt P22303); type: functional
Chain of Acetylcholinesterase (P22303 whole entry): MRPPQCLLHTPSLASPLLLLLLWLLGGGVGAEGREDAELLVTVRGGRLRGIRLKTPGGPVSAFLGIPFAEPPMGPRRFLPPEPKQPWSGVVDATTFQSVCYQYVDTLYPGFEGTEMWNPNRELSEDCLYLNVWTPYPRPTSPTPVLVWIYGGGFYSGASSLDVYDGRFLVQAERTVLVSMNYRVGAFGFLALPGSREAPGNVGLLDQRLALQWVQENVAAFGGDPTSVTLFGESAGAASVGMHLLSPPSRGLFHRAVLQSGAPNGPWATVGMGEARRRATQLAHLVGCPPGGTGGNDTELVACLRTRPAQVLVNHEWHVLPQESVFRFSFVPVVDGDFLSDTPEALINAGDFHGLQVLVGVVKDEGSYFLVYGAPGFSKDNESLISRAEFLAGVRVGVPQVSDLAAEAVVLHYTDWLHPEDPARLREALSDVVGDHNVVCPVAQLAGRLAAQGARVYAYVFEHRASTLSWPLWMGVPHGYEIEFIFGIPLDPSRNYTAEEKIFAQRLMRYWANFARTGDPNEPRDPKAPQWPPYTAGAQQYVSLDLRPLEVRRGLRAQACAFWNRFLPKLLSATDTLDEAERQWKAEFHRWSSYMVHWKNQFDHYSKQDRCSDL

Mu-type opioid receptor = Mu-type opioid receptor (Homo sapiens, UniProt P35372)
Chain of Mu-type opioid receptor (P35372 whole entry): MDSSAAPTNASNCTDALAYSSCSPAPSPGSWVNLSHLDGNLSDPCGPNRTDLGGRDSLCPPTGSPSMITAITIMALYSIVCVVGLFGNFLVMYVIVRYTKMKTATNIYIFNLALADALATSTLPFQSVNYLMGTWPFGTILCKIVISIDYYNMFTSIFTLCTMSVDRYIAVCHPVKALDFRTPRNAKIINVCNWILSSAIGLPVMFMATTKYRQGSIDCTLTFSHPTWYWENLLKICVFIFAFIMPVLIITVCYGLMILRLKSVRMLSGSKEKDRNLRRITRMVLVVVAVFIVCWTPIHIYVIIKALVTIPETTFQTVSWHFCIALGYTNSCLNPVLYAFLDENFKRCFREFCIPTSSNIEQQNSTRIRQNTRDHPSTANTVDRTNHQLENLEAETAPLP

[9] = target: T2, Alpha-1A adrenergic receptor; type: functional, cell-based; remark: listed apart in the source
[10] = target: cGMP-inhibited 3',5'-cyclic phosphodiesterase 3A (Homo sapiens, UniProt Q14432); type: functional
Chain of cGMP-inhibited 3',5'-cyclic phosphodiesterase 3A (Q14432 whole entry): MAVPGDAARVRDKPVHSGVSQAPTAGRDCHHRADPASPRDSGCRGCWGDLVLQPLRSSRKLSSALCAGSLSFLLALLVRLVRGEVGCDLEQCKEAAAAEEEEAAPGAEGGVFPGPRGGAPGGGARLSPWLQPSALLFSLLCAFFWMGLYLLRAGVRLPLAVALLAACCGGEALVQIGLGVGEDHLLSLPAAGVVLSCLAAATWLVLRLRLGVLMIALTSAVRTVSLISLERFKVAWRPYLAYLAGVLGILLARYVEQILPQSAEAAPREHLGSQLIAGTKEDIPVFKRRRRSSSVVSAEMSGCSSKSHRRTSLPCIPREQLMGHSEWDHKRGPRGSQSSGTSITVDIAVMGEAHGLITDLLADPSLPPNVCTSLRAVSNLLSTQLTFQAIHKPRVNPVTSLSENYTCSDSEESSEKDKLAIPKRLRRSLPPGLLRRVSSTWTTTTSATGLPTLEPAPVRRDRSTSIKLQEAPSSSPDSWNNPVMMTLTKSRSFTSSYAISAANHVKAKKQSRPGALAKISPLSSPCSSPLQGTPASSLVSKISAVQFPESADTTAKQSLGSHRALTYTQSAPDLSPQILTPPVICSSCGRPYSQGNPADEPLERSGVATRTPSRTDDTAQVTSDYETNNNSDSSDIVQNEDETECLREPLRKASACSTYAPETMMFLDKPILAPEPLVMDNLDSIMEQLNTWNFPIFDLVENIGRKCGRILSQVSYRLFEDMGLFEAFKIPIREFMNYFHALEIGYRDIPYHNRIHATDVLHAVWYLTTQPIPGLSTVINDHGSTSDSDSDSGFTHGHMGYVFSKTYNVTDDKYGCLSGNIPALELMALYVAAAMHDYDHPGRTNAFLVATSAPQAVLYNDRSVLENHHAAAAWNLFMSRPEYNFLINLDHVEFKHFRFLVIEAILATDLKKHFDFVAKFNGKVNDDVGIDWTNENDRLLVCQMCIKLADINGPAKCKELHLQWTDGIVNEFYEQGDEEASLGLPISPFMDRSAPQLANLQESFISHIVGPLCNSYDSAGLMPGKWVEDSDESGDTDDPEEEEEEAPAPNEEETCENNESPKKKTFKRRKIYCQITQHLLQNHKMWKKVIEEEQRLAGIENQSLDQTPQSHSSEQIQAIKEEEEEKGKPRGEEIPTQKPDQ

Adenosine receptor A3 = target: T5, Adenosine receptor A3 (Homo sapiens, UniProt P0DMS8)
T5 sequence (P0DMS8 whole entry): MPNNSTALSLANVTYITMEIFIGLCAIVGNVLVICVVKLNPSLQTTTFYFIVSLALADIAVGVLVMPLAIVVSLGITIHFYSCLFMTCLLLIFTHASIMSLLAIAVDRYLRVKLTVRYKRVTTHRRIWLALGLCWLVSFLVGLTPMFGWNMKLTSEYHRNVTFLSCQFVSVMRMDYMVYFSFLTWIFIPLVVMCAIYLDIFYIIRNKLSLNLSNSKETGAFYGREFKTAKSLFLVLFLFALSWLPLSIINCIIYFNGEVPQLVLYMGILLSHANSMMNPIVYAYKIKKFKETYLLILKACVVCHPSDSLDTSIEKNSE

Histamine H3 receptor = Histamine H3 receptor (Homo sapiens, UniProt Q9Y5N1)
Chain of Histamine H3 receptor (Q9Y5N1 whole entry): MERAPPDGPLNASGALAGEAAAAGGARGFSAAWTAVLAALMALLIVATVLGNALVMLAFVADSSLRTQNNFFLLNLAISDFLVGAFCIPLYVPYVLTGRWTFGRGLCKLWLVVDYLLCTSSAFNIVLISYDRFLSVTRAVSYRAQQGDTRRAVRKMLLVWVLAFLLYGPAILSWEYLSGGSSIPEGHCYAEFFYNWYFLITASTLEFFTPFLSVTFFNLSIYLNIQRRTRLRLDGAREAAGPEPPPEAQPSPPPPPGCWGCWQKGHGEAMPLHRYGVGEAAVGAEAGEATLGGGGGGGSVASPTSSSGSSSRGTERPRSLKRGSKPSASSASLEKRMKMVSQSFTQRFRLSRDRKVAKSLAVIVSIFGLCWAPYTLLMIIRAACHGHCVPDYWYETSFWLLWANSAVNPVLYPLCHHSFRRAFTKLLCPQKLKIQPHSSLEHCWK

Estrogen receptor = target: T6, Estrogen receptor (Homo sapiens, UniProt P03372)
T6 sequence (P03372 whole entry): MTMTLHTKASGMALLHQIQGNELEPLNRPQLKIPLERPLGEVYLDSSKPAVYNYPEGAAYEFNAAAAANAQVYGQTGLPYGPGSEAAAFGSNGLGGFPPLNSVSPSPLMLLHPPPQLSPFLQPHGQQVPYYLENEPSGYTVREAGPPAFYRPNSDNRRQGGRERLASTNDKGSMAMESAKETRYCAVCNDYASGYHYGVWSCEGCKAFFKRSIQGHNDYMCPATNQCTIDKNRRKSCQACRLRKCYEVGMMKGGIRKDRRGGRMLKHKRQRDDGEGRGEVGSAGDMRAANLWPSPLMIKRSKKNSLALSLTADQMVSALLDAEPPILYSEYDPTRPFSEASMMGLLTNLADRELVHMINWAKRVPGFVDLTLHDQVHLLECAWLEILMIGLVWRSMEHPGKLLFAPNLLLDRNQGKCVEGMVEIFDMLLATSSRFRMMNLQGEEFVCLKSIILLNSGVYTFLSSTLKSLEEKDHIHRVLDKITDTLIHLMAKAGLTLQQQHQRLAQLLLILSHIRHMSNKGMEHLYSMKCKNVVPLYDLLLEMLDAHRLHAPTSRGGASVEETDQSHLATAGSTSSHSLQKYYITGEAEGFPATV
Also: assay procedure not described here.

T1 sequence (P23219 whole entry): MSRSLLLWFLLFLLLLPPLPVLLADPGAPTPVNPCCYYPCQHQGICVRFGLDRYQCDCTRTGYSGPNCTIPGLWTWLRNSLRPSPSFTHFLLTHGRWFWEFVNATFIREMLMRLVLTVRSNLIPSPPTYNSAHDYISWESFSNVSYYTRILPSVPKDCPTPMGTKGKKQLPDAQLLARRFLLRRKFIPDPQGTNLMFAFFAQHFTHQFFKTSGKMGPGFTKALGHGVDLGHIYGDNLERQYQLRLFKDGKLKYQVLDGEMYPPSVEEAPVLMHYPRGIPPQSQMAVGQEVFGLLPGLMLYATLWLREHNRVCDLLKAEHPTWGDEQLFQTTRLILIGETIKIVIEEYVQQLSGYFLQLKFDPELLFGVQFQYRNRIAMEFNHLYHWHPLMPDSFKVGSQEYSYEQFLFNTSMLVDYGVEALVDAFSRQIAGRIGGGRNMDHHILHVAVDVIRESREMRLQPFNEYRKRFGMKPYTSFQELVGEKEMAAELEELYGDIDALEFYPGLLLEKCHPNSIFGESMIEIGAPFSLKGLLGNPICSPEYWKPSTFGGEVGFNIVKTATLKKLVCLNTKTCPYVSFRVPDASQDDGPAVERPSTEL

| Compound | AC50 [1] [µM] | AC50 [2] [µM] | AC50 (D(1A) dopamine receptor) [µM] | AC50 (D(3) dopamine receptor) [µM] | AC50 [3] [µM] | AC50 [4] [µM] | AC50 (Thromboxane A2 receptor [5]) [µM] | AC50 [6] [µM] | AC50 [7] [µM] | AC50 (Thromboxane A2 receptor [8]) [µM] | AC50 (Acetylcholinesterase) [µM] | AC50 (Mu-type opioid receptor) [µM] | AC50 [9] [µM] | AC50 [10] [µM] | AC50 (Adenosine receptor A3) [µM] | AC50 (Histamine H3 receptor) [µM] | AC50 (Estrogen receptor) [µM] |
| --- | --- | --- | --- | --- | --- | --- | --- | --- | --- | --- | --- | --- | --- | --- | --- | --- | --- |
| CC(C1=C(CCN(C)C)Cc2ccccc21)c1ccccn1 (stereo unspecified) | > 30 | 8.8 | 6.52 | 6.44 | 19.4 | 15.1 | > 30 | 11.9 | 13.7 | > 30 | > 30 | 7.04 | > 30 | > 30 | > 30 | 13.2 |  |
| CC(=O)OCC[N+](C)(C)C [ACETYLCHOLINE] | > 30 | > 30 | > 30 | > 30 | > 30 | > 30 |  | > 30 | > 30 | 0.34 | > 30 | > 30 | > 30 | > 30 |  | > 30 |  |
| C[C@H](N)C(=O)O [ALANINE] | > 30 | > 30 | > 30 | > 30 | > 30 | > 30 | > 30 | > 30 | > 30 | > 30 | > 30 | > 30 | > 30 | > 30 | > 30 | > 30 |  |
| O=C1c2c(O)cccc2Cc2cccc(O)c21 [ANTHRALIN] | 0.875 | > 30 | > 30 | > 30 | 14 | > 30 | > 30 | > 3 | > 3 | > 30 | > 30 | > 30 | > 30 | > 30 | > 3 | 28.9 |  |
| C[C@@H](O)[C@H]1C(=O)N2C(C(=O)[O-])=C(SC3Cn4cnc[n+]4C3)[C@H](C)[C@H]12 (stereo partly specified) [BIAPENEM] | > 30 | > 30 | > 30 | > 30 | > 30 | > 30 | > 30 | > 30 | > 30 | > 30 | > 30 | > 30 | > 30 | > 30 |  | > 30 |  |
| CCCCOc1ccc(CC(=O)NO)cc1 [BUFEXAMAC] | > 30 | > 30 | > 30 | > 30 | > 30 | > 30 | > 30 | > 30 | > 30 | > 30 | > 30 | > 30 | > 30 | > 30 | > 30 | > 30 |  |
| Oc1c(I)cc(Cl)c2cccnc12 [CLIOQUINOL] | > 30 |  | > 30 | > 10 | > 30 | > 30 | > 10 | 2.79 | > 30 | > 30 | > 30 | > 30 |  | > 30 |  | > 30 |  |
| Cc1onc(-c2c(Cl)cccc2Cl)c1C(=O)N[C@@H]1C(=O)N2[C@@H]1SC(C)(C)[C@@H]2C(=O)O [DICLOXACILLIN] | > 30 | > 30 | > 30 | > 30 | > 30 | > 30 | > 30 | > 30 | > 30 | > 30 | > 30 | > 30 | > 30 | > 30 | > 30 | > 30 |  |
| CCCCC/C=C\C/C=C\C/C=C\CCCCC(=O)O [GAMOLENIC ACID] | 4.91 | > 30 | > 30 | > 30 | 11.6 | > 30 | > 30 | > 30 | > 30 | > 30 | > 30 | > 30 | > 30 | > 30 | > 30 | > 30 |  |
| CC(N)CCCC(C)(C)O (stereo unspecified) [HEPTAMINOL] | > 30 | > 30 | > 30 | > 30 | > 30 | > 30 | > 30 | > 30 | > 30 | > 30 | > 30 | > 30 | > 30 | > 30 | > 30 | > 30 |  |
| CC[N+](C)(CC)CCOC(=O)C1c2ccccc2Oc2ccccc21 [METHANTHELINE] | > 30 | > 30 | > 30 | > 30 | > 30 | > 30 | > 30 | > 30 | > 30 | > 30 | > 30 | > 30 | > 30 | > 30 | > 30 | > 30 |  |
| C[C@@H]1C[C@H]2[C@@H]3CCC4=CC(=O)C=C[C@]4(C)C3=CC[C@]2(C)[C@H]1C(=O)CN1CCN(c2cc(N3CCCC3)nc(N3CCCC3)n2)CC1 [TIRILAZAD] | 3.8 | > 30 | 7.07 | 9.69 | 3.05 | 17.3 | > 30 | > 30 |  | > 30 | > 30 | > 30 | > 30 | > 30 | 4.07 | > 30 | > 30 |
